Marks after values point to notes of the source that are not given here. Where no end group is shown, it is not given here. [ ]: non-standard residue; d: D form. Cit = NC(=O)NCCC[C@H](N)C(=O)O
Columns and labels:
[1] = test system: human sera; experiment: ELISA: binding of biotinylated collagen peptides to human sera; details: for Controls mean ± SD absorbance: 81 sera from healthy controls, read at 450 nm; for Controls over mean + 2 SD number: number of the 81 control sera; for RA patients over mean + 2 SD number: number of the 120 RA sera, significance marks versus controls; for specific binding to the citrullinated form (autoantibodies against citrullinated proteins): RA sera; for mean (variance/SD) of the differences, absorbance value of citrullinated peptide minus that of arginine peptide: control samples; for number of RA sera that bound more citrullinated peptide than normal (arginine) peptide: 120 RA sera
Excerpt: The serum samples from 120 patients with RA were obtained from the Division of Rheumatology of Oulu University Hospital. The controls consisted of 81 sera from healthy people matched for age and sex. Six pairs of biotinylated peptides were synthesised by NeoMPS (Strasbourg, France). […] FIGS. 1A-C show the localization of the peptides CC1-CC4 in type II collagen and their sequences; the numbers in brackets refer to arginine residues: CC1 (1059), CC2 (1048), CC3 (799) and CC4 (28). Collagenase cleavage site is shown by arrow in FIG. 1A -GPPGPQG|LAGQRGE- (SEQ ID NO:9). […] The sequence GPPGPGIDMSAFAGLGPREKGPDPLQYMXA is shown in the sequence listing as SEQ ID NO: 10. The 12 carboxy terminal amino acids represent the peptide CC1. […] One member of each pair contained the arginine predicted by the respective gene, whereas in the other member of the pair this was replaced by citrulline.
The biotinylated peptides were coupled to streptavidin-coated 96-well assay plates (BioBind Assembly, Thermo Labsystems Oy, Vantaa, Finland) at a concentration of 10 μg/well. The coupling was performed at room temperature, pH 7.5, for two hours. The streptavidin-coated wells had been blocked by the manufacturer to prevent unspecific binding.
The sera to be tested were diluted in assay buffer (10 mM Tris-HCl, 350mM NaCl, 1% BSA, 1% [vol/vol] Triton X-100, 0.5% [wt/vol] Na-deoxycholate, 0.1% SDS; pH 7.6) supplemented with 1% rabbit serum and incubated for an hour at room temperature. After washing (3 times with PBS/0.05% [vol/vol] Tween-20), 100 μl of anti-human IgG conjugated to peroxidase (Product #31412, Pierce, Rockford, Ill., USA) diluted 1:7500 in EIA buffer (20 mM Tris-HCl, 150 mM NaCl, 0.1% BSA, 0.05% Tween-20, pH 7.5) was added. After incubation for an hour at room temperature, the plates were washed (3 times with PBS/Tween-20). The bound antibodies were detected with 3,3′-5,5′-tetramethyl-benzidine (Sigma-Aldrich, St.Louis, Minn., USA) as a substrate (0.01 mg/100 μl per well in 100 mM sodium acetate trihydrate, 1.5 mM citric acid monohydrate, 0.0015% H2O2). After 30 minutes, the reaction was stopped by adding 100 μl 2M sulphuric acid/well. The plates were read at a wavelength of 450 nm in a Victor^2 instrument (Wallac, Turku, Finland) and calculated by Multicalc (Wallac). All the sera were tested in duplicate. The coefficients of variation were generally less than 10%.

[2] = test system: IgG antibodies against the synthetic C-telopeptides of the α1 chains of human type I and II collagens; experiment: Two-site chemiluminescence immunoassay with biotinylated C-telopeptides; type: binding
Experimental: The measurements were done with two-site chemiluminescence immunoassays, which detect IgG antibodies against the synthetic C-telopeptides of the α1 chains of human type I and II collagens (EKAHDGGRYYRA (SEQ ID NO:4), and EKGPDPLQYMRA (SEQ ID NO:5), or EKAHDGGRYYXA (SEQ ID NO:1), and EKGPDPLQYMXA (SEQ ID NO:3), respectively, where X stands for citrulline, from NeoMPS, Strasbourg, France). The serum samples were first diluted 1:10 in a buffer containing 10 mM Tris-HCl, 350 mM NaCl, 1% BSA, 1% [vol/vol] Triton X-100, 0.5% [wt/vol] Na-deoxycholate, 0.1% SDS; pH 7.6 and incubated with suitable concentrations of one of the above peptides (in biotinylated form) and streptavidin-coated magnetic particles for 10 minutes at 37° C. The unbound biotinylated antigen and antibodies were separated from the complex bound to the magnetic particles by aspiration of the reaction mixture and subsequent washing. Thereafter, acridinium-labeled anti-human IgG antibodies were added to the reaction mixture followed by another 10-minute incubation to produce the sandwich complex. The unbound label was separated by aspiration of the reaction mixture and subsequent washing. To the washed magnetic particles with the complex we injected the triggers 1 and 2, initiating the chemiluminescence reaction. […]

[3] = test system: autoantibodies in sera binding citrulline containing type II collagen carboxytelopeptide; experiment: Inhibition assay: citrullinated peptide ELISA with and without soluble peptide; set-up: species or system human; details: soluble peptide 200 μg/ml
Experimental: Preferentially it is also possible to use only citrullinated peptide assay version, where this assay is performed with standard condition and with adding the same or similar soluble peptide in assay solution (200 μg/ml).
Sera from RA patients (n=120) and controls (n=80) were diluted 1:100 in assay buffer and/or inhibiting buffer (with soluble citrulline containing peptide (200 μg/ml)). The inhibition time was 30 minutes. After the inhibition reaction, the sera were moved to the wells of streptavidin-coated 96-well assay plates to which the biotinylated citrulline containing peptides had been coupled. After washing (3 times with PBS/0.05% [vol/vol] Tween-20), 100 μl of anti-human IgG conjugated to peroxidase (Product #31412, Pierce, Rockford, Ill., USA) diluted 1:7500 in EIA buffer (20 mM Tris-HCl, 150 mM NaCl, 0.1% BSA, 0.05% Tween-20, pH 7.5) was added. After incubation for an hour at room temperature, the plates were washed (3 times with PBS/Tween-20). The bound antibodies were detected with 3,3′-5,5′-tetramethyl-benzidine (Sigma-Aldrich, St.Louis, Minn., USA) as a substrate (0.01 mg/100 μl per well in 100 mM sodium acetate trihydrate, 1.5 mM citric acid monohydrate, 0.0015% H2O2). After 30 minutes, the reaction was stopped by adding 100 μl 2M sulphuric acid/well. The plates were read at a wavelength of 450 nm in a Victor instrument (Wallac, Turku, Finland). […]

Row | Sequence | Controls mean ± SD absorbance [1] | Controls over mean + 2 SD number [1] | RA patients over mean + 2 SD number [1] | mean (variance/SD) of the differences, absorbance value of citrullinated peptide minus that of arginine peptide [1] | other results
1 | GPMGPXGPPGPA (GPMGP[Cit]GPPGPA; also: biotinylated (site not given here)) [CC4 Citrulline peptide] | 0.184 ± 0.071 | 2/81 | 22/120*** |  | 
2 | LAGQXGIVGLP (LAGQ[Cit]GIVGLP; also: biotinylated (site not given here)) [CC3] |  |  |  | −0.001 (0.026) | specific binding to the citrullinated form (autoantibodies against citrullinated proteins) [1]: no specific binding
3 | LAGQXGIVGLP (LAGQ[Cit]GIVGLP; also: biotinylated (site not given here)) [CC3 Citrulline peptide] | 0.181 ± 0.067 | 2/81 | 32/120*** |  | 
4 | GPMGPXGPPGPA [CC4 Arginine peptide] (GPMGPRGPPGPA; also: biotinylated, site not given here) [type II collagen peptide, arginine residue 28] | 0.179 ± 0.070 | 3/81 | 60/120*** |  | 
5 | SAFAGLGPXEKGPD (SAFAGLGP[Cit]EKGPD; also: biotinylated (site not given here)) [CC2 Citrulline peptide] | 0.135 ± 0.054 | 1/81 | 25/120*** |  | 
6 | EKAHDGGRYYXA (EKAHDGGRYY[Cit]A; also: biotinylated, site not given here) | 0.314 ± 0.117 | 2/81 | 24/120*** | around +0.026 (0.074) | number of RA patients whose sera showed increased binding of the citrullinated peptide ([2]; out of 120 RA patients, p=0.003 compared to controls): 44; number of RA sera that bound more citrullinated peptide than normal (arginine) peptide [1]: 20
7 | EKGPDPLQYMXA (EKGPDPLQYM[Cit]A; also: biotinylated, site not given here) [CC1] |  |  |  | −0.026 (SD 0.032) | number of patients' sera that bound the citrullinated peptide more strongly than the arginine peptide ([2]; 120 RA patients, p=0.074 compared to controls, not significant): 35; number of RA sera that bound more citrullinated peptide than normal (arginine) peptide [1]: 12; specific binding to the citrullinated form (autoantibodies against citrullinated proteins) [1]: specifically bound autoantibodies against citrullinated proteins
8 | SAFAGLGPXEKGPD [CC2 Arginine peptide] | 0.162 ± 0.053 | 3/81 | 50/120*** |  | 
9 | EKGPDPLQYMXA (EKGPDPLQYM[Cit]A; also: biotinylated, site not given here) [CC1 Citrulline peptide] | 0.155 ± 0.065 | 2/81 | 35/120*** |  | inhibition-% with the respective soluble antigen in controls (mean±SD) ([3]; control sera diluted 1:100, 30 minutes): 5.4%±3.8; number of RA patients showing increased inhibition ([3]; out of 120, more inhibition than 13.0%): 38
10 | EKAHDGGRYYRA (also: biotinylated, site not given here; listed as Homo sapiens) [C-telopeptide of α1(I) Arginine peptide, synthetic C-telopeptide of the α1 chain of human type I collagen] | 0.288 ± 0.142 | 4/81 | 6/120^ns |  | 
11 | GPMGPXGPPGPA (GPMGP[Cit]GPPGPA; also: biotinylated (site not given here)) [CC4] |  |  |  | +0.005 (0.020) | specific binding to the citrullinated form (autoantibodies against citrullinated proteins) [1]: no specific binding
12 | YDFGYDGDFYXA (YDFGYDGDFY[Cit]A; also: biotinylated (site not given here)) [listing 1 of 2 here] | 0.763 ± 0.356 | 3/81 | 12/120** |  | 
13 | EKGPDPLQYMRA (listed as Homo sapiens) [CC1 Arginine peptide, C-telopeptide of the α1 chain of type II collagen] | 0.181 ± 0.077 | 2/81 | 54/120*** |  | 
14 | LAGQXGIVGLP [CC3 Arginine peptide] | 0.182 ± 0.073 |  | 63/120*** |  | 
15 | YDFGYDGDFYXA (YDFGYDGDFY[Cit]A; also: biotinylated (site not given here)) [listing 2 of 2 here] |  |  |  | +0.071 (0.252) | 
16 | SAFAGLGPXEKGPD (SAFAGLGP[Cit]EKGPD; also: biotinylated (site not given here)) [CC2] |  |  |  | −0.027 (0.029) | number of RA sera that bound more citrullinated peptide than normal (arginine) peptide [1]: two

Source: US20090325884A1, “Method for Detecting Autoantibodies Formed in Rheumatoid Arthritis” (PROCOLLAGEN OY, priority 2005, published 2009)
